Laboratory results taken from patent US20150329387A1, “SYSTEMS AND METHODS FOR GENERATING HALOAMINES AND APPLICATION THEREOF IN OIL AND GAS OPERATIONS” (BUCKMAN LABORATORIES INTERNATIONAL, INC., priority 2014, published 2015).

Columns and labels:
Assay type in all cases: cell-based
[1] = Previous testing of kill time and cell penetration
Experimental: Previous testing had shown that the MCA was killing in 20 minutes what it took other biocides (i.e. MTC and Glutaraldehyde) to accomplish in four hours.

anaerobes = assay: Kill study: ATP test of anaerobically captured oil field influent water (LuminUltra QUO-M kit); parameters: ATP readings: unit not given here
Experimental: In an oil and gas field in the western USA, MCA was tested in comparison with methylene bis(thiocyanate), (MTC) in a weekly batch treatment and is fed for 2-3 hours at 200 ppm (as product).
A solution of MCA Working Solution was prepared using Busan 1474 and Bulab 6004 (high alkalinity bleach). The reaction of these two components diluted in water at the proper equimolar ratios and proper pH produces a stable high concentration of biocide. A known concentration of MCA was added to a specific volume of influent water which had to be captured under anaerobic conditions and kept in an incubation chamber when not being used because the primary organisms of interest (anaerobes) are very susceptible to both oxygen and temperature changes. Therefore, as soon as the samples were collected, the head space of the bottles were purged with Nitrogen and then sealed with a rubber stopper (which will permit the insertion of a hypodermic needle) and then crimped into place with an aluminium seal.
Owing to the fact that there is significant oil in the water, the organisms are coated with a fine layer of organic material, thus necessitating the usage of an ATP test kit which washes away the layer of oil prior to ATP testing. The kit employed for this testing is manufactured by LuminUltra and is identified as the Quench Gone Organic-Modified (QUO-M) test kit.
Furthermore, in order to ensure that adequate MCA was present to penetrate this oil layer (and have an apples to apples comparison in performance), the MCA was dosed at the same level as the MTC at a concentration of 200 ppm.
The MCA was tested at intervals between this period (30, 60, 180, and 240 minutes).
Bottles were collected and the initial concentration of ATP for each bottle was measured and then dosed with 200 ppm of MCA and MTC respectively and one bottle was not dosed to serve as a growth control.

[2] = test system: total biological organism concentration; assay: ATP test of biocides in produced water from oil field water/oil/gas separator (LuminUltra QBG kit)
Description: A one-liter sample of water was obtained from the mechanical water/oil/gas separator from a producing oil field in the western USA. The one liter sample was separated into four aliquots, one control and three test samples.
Adenosine triphosphate (ATP) is the energy source for all living organisms. Measurement of the ATP concentration in a water sample gives a good indication of the concentration of total biological organism concentration. A number of different companies including 3M and LuminUltra manufacture test kits. For this testing, the LuminUltra QBG test kit was employed.
Each of the non-control samples were dosed with one of three different biocides: MTC-10 (a 10% solution of methylenebis(thiocyanate) at 22 ppm active concentration; Diald 25 (a 25% solution of Glutaraldehyde) at 50 ppm active; and monochloramine (MCA) at a concentration of 7.5 ppm. After 30 and 60 minutes of exposure, ATP levels were measured and recorded.

[3] = 0 min, initial reading of the bottle before dosing at 200 ppm
[4] = 180 min after dosing at 200 ppm
[5] = 240 min after dosing at 200 ppm

SMILES	Cell penetration ([1]; compared with MTC)	Time to accomplish kill ([1]; previous testing)	ATP readings (anaerobes; [3])	Percent reduction in ATP level (percent kill) (anaerobes; 30 min, 200 ppm)	ATP readings (anaerobes; 30 min after dosing at 200 ppm)	Percent reduction in ATP level (percent kill) (anaerobes; 60 min, 200 ppm)	ATP readings (anaerobes; 60 min after dosing at 200 ppm)	Percent reduction in ATP level (percent kill) (anaerobes; 180 min, 200 ppm)	ATP readings (anaerobes; [4])	Percent reduction in ATP level (percent kill) (anaerobes; 240 min, 200 ppm)	ATP readings (anaerobes; [5])	Effectiveness relative to MTC-10 on an activity percentage basis ([2]; 30 minutes and 60 minutes of exposure, Figure-3)	Performance better than Diald-25 on an activity percentage basis ([2]; 60 minutes of exposure, Figure-3)	Performance on a product percentage basis compared with Diald-25 ([2]; MCA 7.5 ppm vs Diald 25 50 ppm active, ATP after 30 and 60 minutes, Figure-2)	Performance on a product percentage basis compared with MTC-10 ([2]; MCA 7.5 ppm vs MTC-10 22 ppm active, ATP after 30 and 60 minutes, Figure-2)	Performance relative to Diald-25 on an activity percentage basis ([2]; first 30 minutes, Figure-3)	Overall performance in kill study compared with MCA (anaerobes; 200 ppm, FIG. 4 / Table 1)
NCl [MCA, monochloramine]	better than for MTC	20 min	321.4	92%	26.05	94%	19.2	95%	17.4	96%	11.9	greater than 3 ×	more than 20%	better than Diald-25	as well as MTC-10	~2 ×	–
N#CSCSC#N [MTC, methylene bis(thiocyanate), reference compound]	–	–	217.3	–	–	–	–	–	16.9	0.97%	6.12	–	–	–	–	–	performed slightly better
